Biological target: human NaV subtype, like NaV 1.7 (Homo sapiens, UniProt Q15858)
Assay: E-VIPR optical membrane potential assay with electrical stimulation
Assay type: cell-based
Conditions: active against one or more sodium channels; assay and NaV subtype not specified for Table 3; read-out: IC50 Binned Activity Data
Description: Sodium channels are voltage-dependent proteins that can be activated by inducing membrane voltage changes by applying electric fields. […] The instrument comprises a microtiter plate handler, an optical system for exciting the coumarin dye while simultaneously recording the coumarin and oxonol emissions, a waveform generator, a current- or voltage-controlled amplifier, and a device for inserting electrodes in well. Under integrated computer control, this instrument passes user-programmed electrical stimulus protocols to cells within the wells of the microtiter plate.
24 hours before the assay on E-VIPR, HEK cells expressing human NaV subtype, like NaV 1.7, are seeded in 384-well poly-lysine coated plates at 15,000-20,000 cells per well. Other subtypes are performed in an analogous mode in a cell line expressing the NaV of interest. […] Cells are grown in vented cap flasks, in 90% humidity and 10% CO2, to 100% confluence. They are usually split by trypsinization 1:10 or 1:20, depending on scheduling needs, and grown for 2-3 days before the next split.
To make the solution Add volume of 10% Pluronic F127 stock equal to volumes of CC2-DMPE+DiSBAC6(3). The order of preparation is first mix Pluronic and CC2-DMPE, then add DiSBAC6(3) while vortexing, then add Bath1+β-Cyclodextrin.
1) Pre-spot compounds (in neat DMSO) into compound plates. […] Final compound plate volume will be 80 μL (80-fold intermediate dilution from 1 μL DMSO spot; 160-fold final dilution after transfer to cell plate).
2) Prepare Hexyl Dye Solution.
3) Prepare cell plates. On the day of the assay, medium is aspirated and cells are washed three times with 100 μL of Bath1 Solution, maintaining 25 μL residual volume in each well.
4) Dispense 25 μL per well of Hexyl Dye Solution into cell plates. Incubate for 20-35 minutes at room temp or ambient conditions.
5) Dispense 80 μL per well of Bath1 into compound plates. Acid Yellow-17 (1 mM) is added and Potassium Chloride can be altered from 4.5 to 20 mM depending on the NaV subtype and assay sensitivity.
6) Wash cell plates three times with 100 μL per well of Bath1, leaving 25 μL of residual volume. Then transfer 25 uL per well from Compound Plates to Cell Plates. Incubate for 20-35 minutes at room temp/ambient condition
7) Read Plate on E-VIPR. Use the current-controlled amplifier to deliver stimulation wave pulses for typically 9 seconds and a scan rate of 400 Hz. A pre-stimulus recording is performed for 0.5 seconds to obtain the un-stimulated intensities baseline. The stimulatory waveform is applied for 9 seconds followed by 0.5 seconds of post-stimulation recording to examine the relaxation to the resting state. The stimulatory waveform of the electrical stimulation is specific for each cell type and can vary the magnitude, duration and frequency of the applied current to provide an optimal assay signal.
Data are analyzed and reported as normalized ratios of background-subtracted emission intensities measured in the 460 nm and 580 nm channels. Background intensities are then subtracted from each assay channel. Background intensities are obtained by measuring the emission intensities during the same time periods from identically treated assay wells in which there are no cells. The response as a function of time is then reported as the ratios obtained using the following formula: […]
The data is further reduced by calculating the initial (Ri) and final (Rf) ratios. These are the average ratio values during part or all of the pre-stimulation period, and during sample points during the stimulation period. The response to the stimulus R=Rf/Ri is then calculated and reported as a function of time.
Control responses are obtained by performing assays in the presence of a compound with the desired properties (positive control), such as tetracaine, and in the absence of pharmacological agents (negative control). Responses to the negative (N) and positive (P) controls are calculated as above. The compound antagonist activity A is defined as: […]

Chain of human NaV subtype, like NaV 1.7 (Q15858 whole entry): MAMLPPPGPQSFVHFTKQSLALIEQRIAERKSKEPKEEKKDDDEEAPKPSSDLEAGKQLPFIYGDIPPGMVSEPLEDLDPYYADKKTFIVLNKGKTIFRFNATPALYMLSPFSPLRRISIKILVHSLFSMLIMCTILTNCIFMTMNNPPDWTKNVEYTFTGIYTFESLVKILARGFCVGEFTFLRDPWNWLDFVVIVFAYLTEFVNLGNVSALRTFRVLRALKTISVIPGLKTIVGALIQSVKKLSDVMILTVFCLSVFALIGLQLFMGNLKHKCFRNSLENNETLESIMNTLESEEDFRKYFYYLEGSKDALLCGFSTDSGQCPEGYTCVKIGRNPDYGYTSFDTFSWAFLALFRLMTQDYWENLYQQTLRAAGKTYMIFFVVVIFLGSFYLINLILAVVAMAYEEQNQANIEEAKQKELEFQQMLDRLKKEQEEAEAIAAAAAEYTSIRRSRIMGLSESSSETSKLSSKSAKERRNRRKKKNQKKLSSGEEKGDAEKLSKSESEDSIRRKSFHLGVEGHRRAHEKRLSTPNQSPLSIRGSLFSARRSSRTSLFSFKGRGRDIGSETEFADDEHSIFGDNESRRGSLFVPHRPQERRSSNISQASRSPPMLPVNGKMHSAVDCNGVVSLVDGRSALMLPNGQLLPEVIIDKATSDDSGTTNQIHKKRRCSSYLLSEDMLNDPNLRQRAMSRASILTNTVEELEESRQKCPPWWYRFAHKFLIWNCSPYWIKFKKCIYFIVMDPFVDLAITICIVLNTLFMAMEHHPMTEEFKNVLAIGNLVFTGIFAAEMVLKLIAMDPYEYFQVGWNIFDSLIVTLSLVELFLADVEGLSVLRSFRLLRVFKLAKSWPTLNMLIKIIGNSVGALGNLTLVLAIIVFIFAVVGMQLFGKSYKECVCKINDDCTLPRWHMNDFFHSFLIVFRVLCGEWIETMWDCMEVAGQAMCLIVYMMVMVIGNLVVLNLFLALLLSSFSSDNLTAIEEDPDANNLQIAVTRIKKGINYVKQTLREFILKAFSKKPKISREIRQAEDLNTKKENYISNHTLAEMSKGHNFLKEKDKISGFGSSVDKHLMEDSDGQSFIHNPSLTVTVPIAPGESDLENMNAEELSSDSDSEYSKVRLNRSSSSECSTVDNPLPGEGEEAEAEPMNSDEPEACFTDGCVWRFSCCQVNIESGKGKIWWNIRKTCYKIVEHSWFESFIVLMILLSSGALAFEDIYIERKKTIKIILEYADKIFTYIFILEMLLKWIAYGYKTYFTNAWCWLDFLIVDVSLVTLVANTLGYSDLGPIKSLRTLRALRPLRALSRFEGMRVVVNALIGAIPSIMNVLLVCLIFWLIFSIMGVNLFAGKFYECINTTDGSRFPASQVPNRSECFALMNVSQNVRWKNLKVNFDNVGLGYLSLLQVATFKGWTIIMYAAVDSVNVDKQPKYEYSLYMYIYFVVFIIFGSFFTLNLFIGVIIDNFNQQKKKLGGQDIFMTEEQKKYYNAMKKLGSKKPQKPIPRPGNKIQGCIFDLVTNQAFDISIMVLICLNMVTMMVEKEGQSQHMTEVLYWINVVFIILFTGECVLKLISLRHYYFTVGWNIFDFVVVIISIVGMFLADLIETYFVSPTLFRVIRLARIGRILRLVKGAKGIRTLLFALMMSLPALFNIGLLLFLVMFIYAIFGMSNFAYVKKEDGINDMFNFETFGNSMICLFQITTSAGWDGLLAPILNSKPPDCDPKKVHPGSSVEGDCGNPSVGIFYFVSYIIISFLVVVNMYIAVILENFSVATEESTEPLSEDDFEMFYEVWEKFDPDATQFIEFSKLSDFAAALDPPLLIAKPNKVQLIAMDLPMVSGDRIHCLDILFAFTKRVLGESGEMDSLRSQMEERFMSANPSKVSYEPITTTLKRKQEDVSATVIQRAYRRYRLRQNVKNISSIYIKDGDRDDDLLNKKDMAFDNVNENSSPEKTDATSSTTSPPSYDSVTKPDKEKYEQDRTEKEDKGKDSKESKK

`COC(C)(C)COc1ccc(C(=O)N2CCC3(CC2)CN(CC(F)(F)F)CC(c2ccccc2)O3)cc1` (stereo not drawn) [Compound 60] and `CC(C)(O)c1ccc(C(=O)N2CCC3(CC2)CN(CC(F)(F)F)CC(c2ccccc2)O3)cc1` (stereo not drawn) [Compound 105] cannot be ordered by IC50: under 2 µM for the first, under 2 µM for the second.

`CCS(=O)(=O)c1ccc(C(=O)N2CCC3(CC2)CN(CC(F)(F)F)CC(c2ccccc2)O3)cc1C` (stereo not drawn) [Compound 62] and `Cc1cc(C(=O)N2CCC3(CC2)CN(CC(F)(F)F)CC(c2ccccc2)O3)ccc1C(C)(C)O` (stereo not drawn) [Compound 98] cannot be ordered by IC50: under 2 µM for the first, under 2 µM for the second.

First: Cc1ccc(C2CN(CC(F)F)CC3(CCN(C(=O)c4ccc(OC(C)C)c(C)c4)CC3)O2)cc1 (stereo not drawn) [Compound 63]
Second: CC(C)Oc1ccc(C(=O)N2CCC3(CC2)CN(CC(F)F)CC(c2ccccc2)O3)cc1F (stereo not drawn) [Compound 77]
The IC50 of the first is higher: 2 to 5 µM for the first, under 2 µM for the second.

`COCC1CN(Cc2cocn2)CC2(CCN(C(=O)c3ccc(OC(C)C)c(C)c3)CC2)O1` (stereo not drawn) [Compound 64] and `COCC1CN(Cc2cncnc2)CC2(CCN(C(=O)c3ccc(OC(C)C)c(C)c3)CC2)O1` (stereo not drawn) [Compound 69] cannot be ordered by IC50: over 5 µM for the first, over 5 µM for the second.

Compared with `Cc1cc(C(=O)N2CCC3(CC2)CN(CC(F)F)CC(c2ccccn2)O3)ccc1S(=O)(=O)C(C)C` (stereo not drawn) [Compound 65], `CC(C)Oc1ccc(C(=O)N2CCC3(CC2)CN(CC(F)F)CC(c2ccccc2)O3)cc1Cl` (stereo not drawn) [Compound 86] is lower in IC50: over 5 µM for the first, under 2 µM for the second.

`COCC1CN(Cc2c(F)cccc2F)CC2(CCN(C(=O)c3ccc(OC(C)C)c(C)c3)CC2)O1` (stereo not drawn) [Compound 66] and `COCC1CN(Cc2ccccc2F)CC2(CCN(C(=O)c3ccc(OC(C)C)c(C)c3)CC2)O1` (stereo not drawn) [Compound 102] cannot be ordered by IC50: under 2 µM for the first, under 2 µM for the second.

`CCC1CN(c2ncccn2)CC2(CCN(C(=O)c3ccc(C4(O)CCCCC4)cc3)CC2)O1` (stereo not drawn) [Compound 67] and `CCC1CN(c2ncccn2)CC2(CCN(C(=O)c3ccc(C4(O)CCC4)c(C)c3)CC2)O1` (stereo not drawn) [Compound 91] cannot be ordered by IC50: under 2 µM for the first, under 2 µM for the second.

`Cc1cc(C(=O)N2CCC3(CC2)CN(CC#N)CC(c2ccccc2)O3)ccc1C(C)(C)O` (stereo not drawn) [Compound 68] and `COc1cc(C(=O)N2CCC3(CC2)CN(CC#N)CC(c2ccccc2)O3)ccc1C(C)(C)O` (stereo not drawn) [Compound 115] fall in the same range of IC50: 2 to 5 µM for the first, 2 to 5 µM for the second.

`COCC1CN(c2ccc(C#N)cc2)CC2(CCN(C(=O)c3ccc(OC(C)C)c(C)c3)CC2)O1` (stereo not drawn) [Compound 70] and `COCC1CN(c2cccc(OC)c2)CC2(CCN(C(=O)c3ccc(OC(C)C)c(C)c3)CC2)O1` (stereo not drawn) [Compound 74] cannot be ordered by IC50: under 2 µM for the first, under 2 µM for the second.

`COc1cc(F)cc(C(=O)N2CCC3(CC2)CN(CC(F)(F)F)CC(c2ccccc2)O3)c1` (stereo not drawn) [Compound 71] and `O=C(c1cc(Cl)cc(Cl)c1)N1CCC2(CC1)CN(CC(F)(F)F)CC(c1ccccc1)O2` (stereo not drawn) [Compound 118] cannot be ordered by IC50: over 5 µM for the first, over 5 µM for the second.

Compared with `CCOc1cccc(C(=O)N2CCC3(CC2)CN(c2ncccn2)CC(COC)O3)c1` (stereo not drawn) [Compound 72], `COCC1CN(c2ncccn2)CC2(CCN(C(=O)c3ccc(C4(O)CCC4)c(C)c3)CC2)O1` (stereo not drawn) [Compound 93] is lower in IC50: over 5 µM for the first, under 2 µM for the second.

`COCC1CN(C(C)C)CC2(CCN(C(=O)c3ccc(OC(C)C)c(C)c3)CC2)O1` (stereo not drawn) [Compound 73] and `COCC1CN(CC(C)C)CC2(CCN(C(=O)c3ccc(OC(C)C)c(C)c3)CC2)O1` (stereo not drawn) [Compound 111] cannot be ordered by IC50: under 2 µM for the first, under 2 µM for the second.

Compared with `COCC1CN(c2ccc(C)cn2)CC2(CCN(C(=O)c3ccc(OC(C)C)c(C)c3)CC2)O1` (stereo not drawn) [Compound 75], `COCC1CN(c2ccnc(C)c2)CC2(CCN(C(=O)c3ccc(OC(C)C)c(C)c3)CC2)O1` (stereo not drawn) [Compound 95] is higher in IC50: under 2 µM for the first, over 5 µM for the second. The first is the more potent here.

First: CCN1CC(c2ncc(C)s2)OC2(CCN(C(=O)c3ccc(OC(C)C)c(OC)c3)CC2)C1 (stereo not drawn) [Compound 76]
Second: Cc1cc(C(=O)N2CCC3(CC2)CN(CC(F)F)CC(c2ncc(C(C)C)o2)O3)ccc1OC(C)C (stereo not drawn) [Compound 88]
The IC50 of the first is higher: 2 to 5 µM for the first, under 2 µM for the second.

`Cc1cc(C(=O)N2CCC3(CC2)CN(CC(F)(F)F)CC(c2ccccc2)O3)ccc1N1CCOCC1` (stereo not drawn) [Compound 78] and `Cc1cc(C(=O)N2CCC3(CC2)CN(CC(F)(F)F)CC(c2ccccc2)O3)ccc1OCCCO` (stereo not drawn) [Compound 117] cannot be ordered by IC50: under 2 µM for the first, under 2 µM for the second.

`COCC1CN(c2ncccc2OC)CC2(CCN(C(=O)c3ccc(OC(C)C)c(C)c3)CC2)O1` (stereo not drawn) [Compound 79] and `Cc1cc(C(=O)N2CCC3(CC2)CN(c2ncccn2)CC(COC(C)C)O3)ccc1OC(C)C` (stereo not drawn) [Compound 114] cannot be ordered by IC50: under 2 µM for the first, under 2 µM for the second.

`Cc1cccc(C2CN(CC(F)F)CC3(CCN(C(=O)c4ccc(C(C)(C)O)c(F)c4)CC3)O2)n1` (stereo not drawn) [Compound 80] and `CC(C)Oc1ccc(C(=O)N2CCC3(CC2)CN(CC(F)F)CC(c2ccnn2C)O3)cc1F` (stereo not drawn) [Compound 84] cannot be ordered by IC50: over 5 µM for the first, over 5 µM for the second.

Compared with `Cc1cc(C(=O)N2CCC3(CC2)CN(CC(F)F)CC(c2ccc(F)cc2)O3)ccc1OCCCO` (stereo not drawn) [Compound 81], `CC(C)CS(=O)(=O)c1ccc(C(=O)N2CCC3(CC2)CN(CC(F)F)CC(c2ccc(F)cc2)O3)cc1` (stereo not drawn) [Compound 109] is lower in IC50: over 5 µM for the first, 2 to 5 µM for the second. The second is the more potent here.

Compared with `Cc1cc(C(=O)N2CCC3(CC2)CN(Cc2ccccc2)CC(CO)O3)ccc1OC(C)C` (stereo not drawn) [Compound 82], `Cc1cnc(C2CN(Cc3ccccc3)CC3(CCN(C(=O)c4ccc(OC(C)C)c(C)c4)CC3)O2)o1` (stereo not drawn) [Compound 83] is lower in IC50: 2 to 5 µM for the first, under 2 µM for the second.

First: Cc1cc(C2CN(CC(F)(F)F)CC3(CCN(C(=O)c4ccc(OC(C)C)c(F)c4)CC3)O2)n[nH]1 (stereo not drawn) [Compound 87]
Second: CC(C)Oc1ccc(C(=O)N2CCC3(CC2)CN(CC(F)(F)F)CC(c2cc[nH]n2)O3)cc1Cl (stereo not drawn) [Compound 110]
The IC50 of the first is higher: 2 to 5 µM for the first, under 2 µM for the second.

`CCC#CCN1CC(COC)OC2(CCN(C(=O)c3ccc(OC(C)C)c(C)c3)CC2)C1` (stereo not drawn) [Compound 89] and `CCCCN1CC(COC)OC2(CCN(C(=O)c3ccc(OC(C)C)c(C)c3)CC2)C1` (stereo not drawn) [Compound 101] cannot be ordered by IC50: under 2 µM for the first, under 2 µM for the second.

First: O=C(c1ccccc1OC(F)F)N1CCC2(CC1)CN(CC(F)(F)F)CC(c1ccccc1)O2 (stereo not drawn) [Compound 90]
Second: CC(C)Oc1ccc(C(=O)N2CCC3(CC2)CN(CC(F)(F)F)CC(c2ccccc2)O3)cc1F (stereo not drawn) [Compound 94]
The IC50 of the first is higher: over 5 µM for the first, under 2 µM for the second.

`Cc1cc(C(=O)N2CCC3(CC2)CN(c2ncccn2)CC(CO)O3)ccc1OC(C)C` (stereo not drawn) [Compound 92] and `COCC1CN(CC(C)=O)CC2(CCN(C(=O)c3ccc(OC(C)C)c(C)c3)CC2)O1` (stereo not drawn) [Compound 113] cannot be ordered by IC50: over 5 µM for the first, over 5 µM for the second.

First: O=C(c1ccc(S(=O)(=O)C2CCOC2)cc1)N1CCC2(CC1)CN(CC(F)F)CC(c1ccc(F)cc1)O2 (stereo not drawn) [Compound 96]
Second: O=C(c1ccc(S(=O)(=O)NC2CC2)cc1)N1CCC2(CC1)CN(CC(F)(F)F)CC(c1ccccc1)O2 (stereo not drawn) [Compound 99]
The IC50 of the first is higher: over 5 µM for the first, under 2 µM for the second. The second is the more potent here.

`CCC1CN(c2ccccn2)CC2(CCN(C(=O)c3ccc(C(C)(C)O)c(C)c3)CC2)O1` (stereo not drawn) [Compound 97] and `CCC1CN(c2ccccn2)CC2(CCN(C(=O)c3ccc(C4(O)CCCC4)c(C)c3)CC2)O1` (stereo not drawn) [Compound 103] cannot be ordered by IC50: under 2 µM for the first, under 2 µM for the second.

`COc1cc(C(=O)N2CCC3(CC2)CN(CC(F)F)C(c2ccccc2)CO3)ccc1OC(C)C` (stereo not drawn) [Compound 100] and `COc1cc(C(=O)N2CCC3(CC2)CN(CC(F)(F)F)C(c2ccccc2)CO3)ccc1OC(C)C` (stereo not drawn) [Compound 104] cannot be ordered by IC50: under 2 µM for the first, under 2 µM for the second.

Compared with `Cc1nc(C(=O)N2CCC3(CC2)CN(CC(F)(F)F)CC(c2ccccc2)O3)ccc1C#N` (stereo not drawn) [Compound 106], `Cc1nc2cccc(C(=O)N3CCC4(CC3)CN(CC(F)(F)F)CC(c3ccccc3)O4)c2o1` (stereo not drawn) [Compound 116] is lower in IC50: over 5 µM for the first, under 2 µM for the second. The second is the more potent here.

`CCCOCCN1CC(COC)OC2(CCN(C(=O)c3ccc(OC(C)C)c(C)c3)CC2)C1` (stereo not drawn) [Compound 107] and `CCC(CC)CN1CC(COC)OC2(CCN(C(=O)c3ccc(OC(C)C)c(C)c3)CC2)C1` (stereo not drawn) [Compound 112] cannot be ordered by IC50: under 2 µM for the first, under 2 µM for the second.

For `Cc1cc(S(C)(=O)=O)ccc1C(=O)N1CCC2(CC1)CN(CC(F)(F)F)CC(c1ccccc1)O2` (stereo not drawn) [Compound 108], the IC50 was over 5 µM.

Source: patent publication US9181273B2, “Morpholine-spirocyclic piperidine amides as modulators of ion channels” (Vertex Pharmaceuticals Incorporated, priority 2011, dated 2015)
